Patent publication US8404692B2, “Pyrimidin-4-yl-3, 4-dihydro-2H-pyrrolo [1,2A] pyrazin-1-one compounds” (Cyclacel Limited, priority 2005, dated 2013)

target: T1, aurora-A (human) (Homo sapiens, UniProt O14965); assay: Aurora-A (human) kinase assay; type: biochemical; conditions: read-out: Activity (Aurora A activity, IC50 grading)
T1 construct: purchased Upstate, Dundee, UK
T1 sequence (O14965 1-403): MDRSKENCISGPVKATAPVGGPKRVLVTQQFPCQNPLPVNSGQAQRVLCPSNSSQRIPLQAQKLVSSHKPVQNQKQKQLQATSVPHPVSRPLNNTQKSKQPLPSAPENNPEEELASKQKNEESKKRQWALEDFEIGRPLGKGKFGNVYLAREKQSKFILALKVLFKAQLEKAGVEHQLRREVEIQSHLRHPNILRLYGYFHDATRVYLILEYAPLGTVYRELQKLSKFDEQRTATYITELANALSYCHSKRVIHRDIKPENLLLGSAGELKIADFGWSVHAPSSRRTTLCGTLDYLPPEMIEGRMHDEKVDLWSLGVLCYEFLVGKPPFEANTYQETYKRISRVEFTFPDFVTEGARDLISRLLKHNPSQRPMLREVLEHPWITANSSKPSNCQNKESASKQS
Procedure: This was achieved by measurement of incorporation of radioactive phosphate from ATP into Kemptide substrate (LRRASLG), upon phosphorylation by commercially obtained aurora-A (human, Upstate; Dundee, UK). Assays were performed using 96-well plates and appropriate assay buffers (20 mM Tris, 25 mM β-glycerophosphate, 5 mM EGTA, 1 mM DTT, 1 mM sodium vanadate, pH 7.5), into which were added 2-5 ng of active enzyme with 500 μM substrate (Kemptide). The reactions were initiated by addition of MATP mix (15 mM MgCl2+100 μM ATP with 15-25 kBq per well of [γ-^32P]-ATP) and mixtures incubated for 30 min at 30° C. Reactions were stopped by addition of an equal volume of 75 mM aq orthophosphoric acid, followed by filtration through p81 filterplates (Whatman Polyfiltronics, Kent, UK). After washing 4 times with 75 mM aq orthophosphoric acid, plates were dried, scintillant added and incorporated radioactivity measured in a scintillation counter (TopCount, Packard Instruments, Pangbourne, Berks, UK). Compounds for kinase assay were made up as 10 mM stocks in DMSO and diluted into 10% DMSO in assay buffer. Data was analysed using curve-fitting software (XLfit version 4.0.2, IDBS, Guildford, Surrey, UK) to determine IC50 values (concentration of test compound which inhibits kinase activity by 50%).

`Cc1c(-c2ccnc(Nc3ccc(N4CCOC4=O)cc3)n2)c(C)n2c1C(=O)NCC2` [Example I-44, 6,8-Dimethyl-7-{2-[4-(2-oxo-oxazolidin-3-yl)-phenylamino]-pyrimidin-4-yl}-3,4-dihydro-2H-pyrrolo[1,2-a]pyrazin-1-one] and `Cc1c(-c2ccnc(Nc3ccc(-n4cccn4)cc3)n2)c(C)n2c1C(=O)NCC2` [Example I-72, 6,8-Dimethyl-7-[2-(4-pyrazol-1-yl-phenylamino)-pyrimidin-4-yl]-3,4-dihydro-2H-pyrrolo[1,2-a]pyrazin-1-one] cannot be ordered by IC50: under 1000 nM for the first, under 1000 nM for the second.

`Cc1c(-c2ccnc(Nc3ccc4c(c3)COCO4)n2)c(C)n2c1C(=O)NCC2` [Example I-45, 7-[2-(4H-Benzo[1,3]dioxin-6-ylamino)-pyrimidin-4-yl]-6,8-dimethyl-3,4-dihydro-2H-pyrrolo[1,2-a]pyrazin-1-one] and `Cc1c(-c2ccnc(Nc3ccc4c(c3)OCCCO4)n2)c(C)n2c1C(=O)NCC2` [Example I-62, 7-[2-(3,4-Dihydro-2H-benzo[b][1,4]dioxepin-7-ylamino)-pyrimidin-4-yl]-6,8-dimethyl-3,4-dihydro-2H-pyrrolo[1,2-a]pyrazin-1-one] cannot be ordered by IC50: under 100 nM for the first, under 100 nM for the second.

`Cc1nccc(-c2cccc(Nc3nccc(-c4c(C)c5n(c4C)CCNC5=O)n3)c2)n1` [Example I-46, 6,8-Dimethyl-7-{2-[3-(2-methyl-pyrimidin-4-yl)-phenylamino]-pyrimidin-4-yl}-3,4-dihydro-2H-pyrrolo[1,2-a]pyrazin-1-one] and `Cc1c(-c2ccnc(Nc3cccc(-c4cnco4)c3)n2)c(C)n2c1C(=O)NCC2` [Example I-49, 6,8-Dimethyl-7-[2-(3-oxazol-5-yl-phenylamino)-pyrimidin-4-yl]-3,4-dihydro-2H-pyrrolo[1,2-a]pyrazin-1-one] cannot be ordered by IC50: under 100 nM for the first, under 1000 nM for the second.

`CC(=O)Nc1ccc(Nc2nccc(-c3c(C)c4n(c3C)CCNC4=O)n2)cc1Cl` [Example I-47, N-{2-Chloro-4-[4-(6,8-dimethyl-1-oxo-1,2,3,4-tetrahydro-pyrrolo[1,2-a]pyrazin-7-yl)-pyrimidin-2-ylamino]-phenyl}-acetamide] and `CC(=O)Nc1cccc(Nc2nccc(-c3c(C)c4n(c3C)CCNC4=O)n2)c1` [Example I-59, N-{3-[4-(6,8-Dimethyl-1-oxo-1,2,3,4-tetrahydro-pyrrolo[1,2-a]pyrazin-7-yl)-pyrimidin-2-ylamino]-phenyl}-acetamide] cannot be ordered by IC50: under 1000 nM for the first, under 100 nM for the second.

`Cc1cc2cc(Nc3nccc(-c4c(C)c5n(c4C)CCNC5=O)n3)ccc2[nH]1` [Example I-48, 6,8-Dimethyl-7-[2-(2-methyl-1H-indol-5-ylamino)-pyrimidin-4-yl]-3,4-dihydro-2H-pyrrolo[1,2-a]pyrazin-1-one] and `Cc1c(-c2ccnc(Nc3ccc(F)c(Cl)c3)n2)c(C)n2c1C(=O)NCC2` [Example I-64, 7-[2-(3-Chloro-4-fluoro-phenylamino)-pyrimidin-4-yl]-6,8-dimethyl-3,4-dihydro-2H-pyrrolo[1,2-a]pyrazin-1-one] cannot be ordered by IC50: under 1000 nM for the first, under 1000 nM for the second.

`Cc1c(-c2ccnc(Nc3ccc(S(=O)(=O)N4CCOCC4)cc3)n2)c(C)n2c1C(=O)NCC2` [Example I-50, 6,8-Dimethyl-7-{2-[4-(morpholine-4-sulfonyl)-phenylamino]-pyrimidin-4-yl}-3,4-dihydro-2H-pyrrolo[1,2-a]pyrazin-1-one] and `Cc1c(-c2ccnc(Nc3ccc(S(=O)(=O)N4CCCC4)cc3)n2)c(C)n2c1C(=O)NCC2` [Example I-55, 6,8-Dimethyl-7-{2-[4-(pyrrolidine-1-sulfonyl)-phenylamino]-pyrimidin-4-yl}-3,4-dihydro-2H-pyrrolo[1,2-a]pyrazin-1-one] cannot be ordered by IC50: under 1000 nM for the first, under 1000 nM for the second.

`Cc1c(-c2ccnc(Nc3ccc(OCCN4CCOCC4)cc3)n2)c(C)n2c1C(=O)NCC2` [Example I-51, 6,8-Dimethyl-7-{2-[4-(2-morpholin-4-yl-ethoxy)-phenylamino]-pyrimidin-4-yl}-3,4-dihydro-2H-pyrrolo[1,2-a]pyrazin-1-one] and `Cc1c(-c2ccnc(Nc3ccc(OC(F)(F)F)cc3)n2)c(C)n2c1C(=O)NCC2` [Example I-61, 6,8-Dimethyl-7-[2-(4-trifluoromethoxy-phenylamino)pyrimidin-4-yl]-3,4-dihydro-2H-pyrrolo[1,2-a]pyrazin-1-one] cannot be ordered by IC50: under 1000 nM for the first, under 1000 nM for the second.

`Cc1c(-c2ccnc(Nc3ccc(-c4cnco4)cc3)n2)c(C)n2c1C(=O)NCC2` [Example I-52, 6,8-Dimethyl-7-[2-(4-oxazol-5-yl-phenylamino)-pyrimidin-4-yl]-3,4-dihydro-2H-pyrrolo[1,2-a]pyrazin-1-one] and `Cc1c(-c2ccnc(Nc3ccc(-c4csnn4)cc3)n2)c(C)n2c1C(=O)NCC2` [Example I-60, 6,8-Dimethyl-7-[2-(4-[1,2,3]thiadiazol-4-yl-phenylamino)-pyrimidin-4-yl]-3,4-dihydro-2H-pyrrolo[1,2-a]pyrazin-1-one] cannot be ordered by IC50: under 1000 nM for the first, under 100 nM for the second.

`Cc1c(-c2ccnc(Nc3cccc(-c4cncnc4)c3)n2)c(C)n2c1C(=O)NCC2` [Example I-53, 6,8-Dimethyl-7-[2-(3-pyrimidin-5-yl-phenylamino)-pyrimidin-4-yl]-3,4-dihydro-2H-pyrrolo[1,2-a]pyrazin-1-one] and `Cc1c(-c2ccnc(Nc3cccc(Cl)c3)n2)c(C)n2c1C(=O)NCC2` [Example I-69, 7-[2-(3-Chloro-phenylamino)-pyrimidin-4-yl]-6,8-dimethyl-3,4-dihydro-2H-pyrrolo[1,2-a]pyrazin-1-one] cannot be ordered by IC50: under 100 nM for the first, under 1000 nM for the second.

`Cc1c(-c2ccnc(Nc3ccc(Cc4ccncc4)cc3)n2)c(C)n2c1C(=O)NCC2` [Example I-54, 6,8-Dimethyl-7-[2-(4-pyridin-4-ylmethyl-phenylamino)-pyrimidin-4-yl]-3,4-dihydro-2H-pyrrolo[1,2-a]pyrazin-1-one] and `Cc1c(-c2ccnc(Nc3ccc(CC(=O)O)cc3)n2)c(C)n2c1C(=O)NCC2` [Example I-70, {4-[4-(6,8-dimethyl-1-oxo-1,2,3,4-tetrahydro-pyrrolo[1,2-a]pyrazin-7-yl)-pyrimidin-2-ylamino]-phenyl}-acetic acid] cannot be ordered by IC50: under 1000 nM for the first, under 100 nM for the second.

`Cc1c(-c2ccnc(Nc3ccc(S(=O)(=O)N4CCCCC4)cc3)n2)c(C)n2c1C(=O)NCC2` [Example I-56, 6,8-Dimethyl-7-{2-[4-(piperidine-1-sulfonyl)-phenylamino]-pyrimidin-4-yl}-dihydro-2H-pyrrolo[1,2-a]pyrazin-1-one] and `Cc1c(-c2ccnc(Nc3ccc(C(F)(F)F)cc3)n2)c(C)n2c1C(=O)NCC2` [Example I-68, 6,8-Dimethyl-7-[2-(4-trifluoromethyl-phenylamino)-pyrimidin-4-yl]-3,4-dihydro-2H-pyrrolo[1,2-a]pyrazin-1-one] cannot be ordered by IC50: under 100 nM for the first, under 10000 nM for the second.

`Cc1c(-c2ccnc(Nc3ccc(OCc4ccccc4)cc3)n2)c(C)n2c1C(=O)NCC2` [Example I-57, 7-[2-(4-Benzyloxy-phenylamino)-pyrimidin-4-yl]-6,8-dimethyl-3,4-dihydro-2H-pyrrolo[1,2-a]pyrazin-1-one] and `Cc1c(-c2ccnc(Nc3cccc(C(=O)c4ccccc4)c3)n2)c(C)n2c1C(=O)NCC2` [Example I-58, 7-[2-(3-Benzoyl-phenylamino)-pyrimidin-4-yl]-6,8-dimethyl-3,4-dihydro-2H-pyrrolo[1,2-a]pyrazin-1-one] cannot be ordered by IC50: under 10000 nM for the first, under 1000 nM for the second.

`Cc1c(-c2ccnc(Nc3ccc4c(c3)CS(=O)(=O)C4)n2)c(C)n2c1C(=O)NCC2` [Example I-63, 7-[2-(2,2-Dioxo-2,3-dihydro-1H-2-benzo[c]thiophen-5-ylamino)-pyrimidin-4-yl]-6,8-dimethyl-3,4-dihydro-2H-pyrrolo[1,2-a]pyrazin-1-one] and `COc1ccc(Nc2nccc(-c3c(C)c4n(c3C)CCNC4=O)n2)cc1Cl` [Example I-67, 7-[2-(3-Chloro-4-methoxy-phenylamino)-pyrimidin-4-yl]-6,8-dimethyl-3,4-dihydro-2H-pyrrolo[1,2-a]pyrazin-1-one] cannot be ordered by IC50: under 100 nM for the first, under 100 nM for the second.

`Cc1c(-c2ccnc(Nc3ccccc3F)n2)c(C)n2c1C(=O)NCC2` [Example I-65, 7-[2-(2-Fluoro-phenylamino)-pyrimidin-4-yl]-6,8-dimethyl-3,4-dihydro-2H-pyrrolo[1,2-a]pyrazin-1-one] and `Cc1c(-c2ccnc(Nc3ccc(F)cc3F)n2)c(C)n2c1C(=O)NCC2` [Example I-66, 7-[2-(2,4-Difluoro-phenylamino)-pyrimidin-4-yl]-6,8-dimethyl-3,4-dihydro-2H-pyrrolo[1,2-a]pyrazin-1-one] cannot be ordered by IC50: under 1000 nM for the first, under 10000 nM for the second.

For `Cc1nc(-c2ccc(Nc3nccc(-c4c(C)c5n(c4C)CCNC5=O)n3)cc2)cs1` [Example I-71, 6,8-Dimethyl-7-{2-[4-(2-methyl-thiazol-4-yl)-phenylamino]-pyrimidin-4-yl}-3,4-dihydro-2H-pyrrolo[1,2-a]pyrazin-1-one], the IC50 was under 1000 nM.
